This test deals with Nav 1.7 (Homo sapiens (Human), UniProt Q15858). As to the kind of experiment: in-vitro Nav 1.7 PX (IC50). The test is classed as cell-based.
The mark [1] stands for this setting: in-vitro Nav 1.7 PX data (PatchXpress).

Like-named read-outs stand apart in the source and are kept apart here.

Sequence of Nav 1.7 (Q15858 whole entry): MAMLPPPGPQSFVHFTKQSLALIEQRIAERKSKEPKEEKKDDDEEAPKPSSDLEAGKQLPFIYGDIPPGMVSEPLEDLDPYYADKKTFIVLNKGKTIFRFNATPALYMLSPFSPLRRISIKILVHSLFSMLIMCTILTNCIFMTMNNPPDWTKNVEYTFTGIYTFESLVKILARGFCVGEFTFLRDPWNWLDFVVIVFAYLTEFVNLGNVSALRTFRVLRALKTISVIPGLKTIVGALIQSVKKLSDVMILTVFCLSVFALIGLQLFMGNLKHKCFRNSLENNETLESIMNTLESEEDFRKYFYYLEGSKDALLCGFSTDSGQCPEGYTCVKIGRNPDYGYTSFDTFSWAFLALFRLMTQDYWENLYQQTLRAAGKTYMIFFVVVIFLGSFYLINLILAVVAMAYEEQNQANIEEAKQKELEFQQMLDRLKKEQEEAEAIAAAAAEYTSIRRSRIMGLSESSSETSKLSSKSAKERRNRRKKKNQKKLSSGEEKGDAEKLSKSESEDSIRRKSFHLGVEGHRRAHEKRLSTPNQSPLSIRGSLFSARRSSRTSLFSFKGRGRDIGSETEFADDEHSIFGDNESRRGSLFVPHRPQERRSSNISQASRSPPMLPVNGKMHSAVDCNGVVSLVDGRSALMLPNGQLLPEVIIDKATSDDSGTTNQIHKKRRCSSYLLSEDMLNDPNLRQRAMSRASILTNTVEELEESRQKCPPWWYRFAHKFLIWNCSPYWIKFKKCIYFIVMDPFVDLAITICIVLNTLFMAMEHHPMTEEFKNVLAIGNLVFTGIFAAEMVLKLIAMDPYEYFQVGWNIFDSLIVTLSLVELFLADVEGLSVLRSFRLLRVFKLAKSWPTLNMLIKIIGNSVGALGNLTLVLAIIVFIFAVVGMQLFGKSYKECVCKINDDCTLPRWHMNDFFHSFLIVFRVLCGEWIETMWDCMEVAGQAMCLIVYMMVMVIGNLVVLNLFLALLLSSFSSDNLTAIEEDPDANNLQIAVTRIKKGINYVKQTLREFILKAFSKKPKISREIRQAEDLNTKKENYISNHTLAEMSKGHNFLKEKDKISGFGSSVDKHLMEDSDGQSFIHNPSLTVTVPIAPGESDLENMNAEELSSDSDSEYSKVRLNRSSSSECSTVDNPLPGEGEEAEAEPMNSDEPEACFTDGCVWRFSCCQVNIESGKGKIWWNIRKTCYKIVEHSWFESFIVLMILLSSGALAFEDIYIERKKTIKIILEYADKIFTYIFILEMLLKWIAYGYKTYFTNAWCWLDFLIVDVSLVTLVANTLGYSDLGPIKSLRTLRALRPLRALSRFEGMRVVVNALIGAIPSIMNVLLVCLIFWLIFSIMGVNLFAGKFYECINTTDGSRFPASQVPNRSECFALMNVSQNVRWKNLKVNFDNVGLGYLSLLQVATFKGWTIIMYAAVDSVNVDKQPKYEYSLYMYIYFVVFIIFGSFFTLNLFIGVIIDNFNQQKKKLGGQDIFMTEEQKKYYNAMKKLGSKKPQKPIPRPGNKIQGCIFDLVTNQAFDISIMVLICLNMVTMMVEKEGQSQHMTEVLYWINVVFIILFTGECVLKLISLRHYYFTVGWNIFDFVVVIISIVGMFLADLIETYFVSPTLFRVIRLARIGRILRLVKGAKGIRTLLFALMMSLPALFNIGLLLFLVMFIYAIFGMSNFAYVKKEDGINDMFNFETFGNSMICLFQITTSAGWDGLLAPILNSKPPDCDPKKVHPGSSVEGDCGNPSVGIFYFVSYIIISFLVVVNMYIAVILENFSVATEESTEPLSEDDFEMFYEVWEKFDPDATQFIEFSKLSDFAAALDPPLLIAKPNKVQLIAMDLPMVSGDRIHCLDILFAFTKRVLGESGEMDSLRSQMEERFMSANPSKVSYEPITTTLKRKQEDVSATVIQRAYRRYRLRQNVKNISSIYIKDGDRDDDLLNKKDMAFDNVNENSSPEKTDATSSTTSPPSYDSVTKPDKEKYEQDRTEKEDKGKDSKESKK

In the case of `CCOc1cccc(-c2ccc(-n3c(=O)ccc4cc(S(=O)(=O)Nc5ccon5)ccc43)c(OC)c2)c1` [631/779, 1-(3′-ethoxy-3-methoxy-4-biphenylyl)-N-3-isoxazolyl-2-oxo-1,2-dihydro-6-quinolinesulfonamide], the 50% inhibitory concentration (IC50) (usually the midpoint of a concentration-inhibition curve) (in-vitro Nav 1.7 PX data) was found to be 0.024 µM.

With `COc1nc(-c2cc(F)cc(Cl)c2)c(Cl)cc1-n1c(=O)ccc2cc(S(=O)(=O)Nc3ccon3)ccc21` [Example 1070, 1-(5-chloro-6-(3-chloro-5-fluorophenyl)-2-methoxy-3-pyridinyl)-N-3-isoxazolyl-2-oxo-1,2-dihydro-6-quinolinesulfonamide], the IC50 (in-vitro Nav 1.7 PX data) was 0.012 µM.

With `COc1cc(-c2cc(Cl)cc(Cl)c2)ccc1-n1c(=O)ccc2cc(S(=O)(=O)Nc3ccon3)ccc21` [Example 1023, 1-(3′,5′-dichloro-3-methoxy-4-biphenylyl)-N-3-isoxazolyl-2-oxo-1,2-dihydro-6-quinolinesulfonamide], the IC50 (in-vitro Nav 1.7 PX data) amounted to 0.009 µM.

In the case of `COc1cc(F)cc(-c2ccc(-n3c(=O)ccc4cc(S(=O)(=O)Nc5ccon5)ccc43)c(OC)c2)c1` [Example 1018, 1-(3′-fluoro-3,5′-dimethoxy-4-biphenylyl)-N-3-isoxazolyl-2-oxo-1,2-dihydro-6-quinolinesulfonamide], under “in-vitro Nav 1.7 PX data”, the IC50 came to 0.013 µM. This IC50 and that of the molecule before are within 1.5-fold of each other.

Molecule `COc1nc(OCC2CCCC2)c(Cl)cc1-n1c(=O)ccc2cc(S(=O)(=O)Nc3ccon3)ccc21` [Example 824, 1-(5-chloro-6-(cyclopentylmethoxy)-2-methoxy-3-pyridinyl)-N-3-isoxazolyl-2-oxo-1,2-dihydro-6-quinolinesulfonamide] returned an IC50 (in-vitro Nav 1.7 PX data) of 0.217 µM. This IC50 is about 17-fold higher than that of the molecule before.

Take `COc1cc(-c2ccccc2C)c(F)cc1-n1c(=O)ccc2cc(S(=O)(=O)Nc3ccon3)ccc21` [Example 953, 1-(2-fluoro-5-methoxy-2′-methyl-4-biphenylyl)-N-3-isoxazolyl-2-oxo-1,2-dihydro-6-quinolinesulfonamide]: half-maximal inhibition (in-vitro Nav 1.7 PX data) (IC50) required 0.026 µM.

With `COc1ccc(-c2cc(F)cc(Cl)c2)cc1-n1c(=O)ccc2cc(S(=O)(=O)Nc3cnccn3)ccc21` [Example 860, 1-(3′-chloro-5′-fluoro-4-methoxy-3-biphenylyl)-2-oxo-N-2-pyrazinyl-1,2-dihydro-6-quinolinesulfonamide], the IC50 (in-vitro Nav 1.7 PX data) was determined as 0.251 µM.

Molecule `COc1cc(-c2cccc(OC(C)C)c2)c(F)cc1-n1c(=O)ccc2cc(S(=O)(=O)Nc3ccon3)ccc21` [Example 823, 1-(2-fluoro-5-methoxy-3′-(1-methylethoxy)-4-biphenylyl)-N-3-isoxazolyl-2-oxo-1,2-dihydro-6-quinolinesulfonamide] had a concentration for half-maximal inhibition (IC50) (in-vitro Nav 1.7 PX data) of 0.025 µM.

For the setting “in-vitro Nav 1.7 PX data”, `COc1cc(-c2ccccn2)c(F)cc1-n1c(=O)ccc2cc(S(=O)(=O)Nc3ccon3)ccc21` [Example 594, 1-(5-fluoro-2-methoxy-4-(2-pyridinyl)phenyl)-N-3-isoxazolyl-2-oxo-1,2-dihydro-6-quinolinesulfonamide] gave a concentration for half-maximal inhibition (IC50) of 1.66 µM. This IC50 lies about 66-fold higher than the previous one.

Take `COc1cc(-c2ccc(F)c(C)c2)c(F)cc1-n1c(=O)ccc2cc(S(=O)(=O)Nc3ccnc(C)n3)ccc21` [Example 944, 1-(2,4′-difluoro-5-methoxy-3′-methyl-4-biphenylyl)-N-(2-methyl-4-pyrimidinyl)-2-oxo-1,2-dihydro-6-quinolinesulfonamide]: the IC50 (in-vitro Nav 1.7 PX data) stood at 0.027 µM. This IC50 is about 61-fold lower than that of the molecule before.

Take `COc1cc(-c2ccc(Cl)cc2)c(F)cc1-n1c(=O)ccc2cc(S(=O)(=O)Nc3ccon3)ccc21` (atropisomer, axis not shown; (P)) [Example 633, (P)-1-(4′-chloro-2-fluoro-5-methoxy-4-biphenylyl)-N-3-isoxazolyl-2-oxo-1,2-dihydro-6-quinolinesulfonamide]: the IC50 (in-vitro Nav 1.7 PX data) came to 0.007 µM. Against the preceding molecule, the IC50 is about 3.9-fold lower.

Where the note is “in-vitro Nav 1.7 PX data”, `COc1ccc(-c2cc(OC)c(-n3c(=O)ccc4cc(S(=O)(=O)Nc5ccon5)ccc43)cc2F)c(Cl)c1` [Example 699, 1-(2′-chloro-2-fluoro-4′,5-dimethoxy-4-biphenylyl)-N-3-isoxazolyl-2-oxo-1,2-dihydro-6-quinolinesulfonamide] gave a half-inhibitory concentration (IC50) of 0.037 µM.

As for `COc1cc(-c2ccc(Cl)cc2)c(F)cc1-n1c(=O)ccc2cc(S(=O)(=O)Nc3ccnc(C)n3)ccc21` [Example 751, 1-(4′-chloro-2-fluoro-5-methoxy-4-biphenylyl)-N-(2-methyl-4-pyrimidinyl)-2-oxo-1,2-dihydro-6-quinolinesulfonamide], the concentration for half-maximal inhibition (IC50) (in-vitro Nav 1.7 PX data) stood at 0.067 µM.

In turn, `COc1cc(-c2cccc(C(C)C)c2)ccc1-n1c(=O)ccc2cc(S(=O)(=O)Nc3ccon3)ccc21` [Example 783, N-3-isoxazolyl-1-(3-methoxy-3′-(1-methylethyl)-4-biphenylyl)-2-oxo-1,2-dihydro-6-quinolinesulfonamide] displayed a 50% inhibitory concentration (IC50) (in-vitro Nav 1.7 PX data) of 0.009 µM.

Consider `COc1cc(-c2ccc(Cl)c(C)c2)c(F)cc1-n1c(=O)ccc2cc(S(=O)(=O)Nc3cc(C)on3)ccc21` [Example 931, 1-(4′-chloro-2-fluoro-5-methoxy-3′-methyl-4-biphenylyl)-N-(5-methyl-3-isoxazolyl)-2-oxo-1,2-dihydro-6-quinolinesulfonamide], for which the IC50 (in-vitro Nav 1.7 PX data) worked out at 0.128 µM. This IC50 is about 14-fold higher than that of the molecule before.

`COc1ccc(-c2ccc(F)c(C)c2)cc1-n1c(=O)ccc2cc(S(=O)(=O)Nc3ccon3)ccc21` [Example 878, 1-(4′-fluoro-4-methoxy-3′-methyl-3-biphenylyl)-N-3-isoxazolyl-2-oxo-1,2-dihydro-6-quinolinesulfonamide]: half-maximal inhibition (in-vitro Nav 1.7 PX data) (IC50) required 0.021 µM.

The molecule `COc1cc(-c2cc(F)cc(Cl)c2)c(F)cc1-n1c(=O)ccc2cc(S(=O)(=O)Nc3ncc(F)cn3)ccc21` (atropisomer, axis not shown; (P)) [Example 544, (P)-1-(3′-chloro-2,5′-difluoro-5-methoxy-4-biphenylyl)-N-(5-fluoro-2-pyrimidinyl)-2-oxo-1,2-dihydro-6-quinolinesulfonamide] had a half-inhibitory concentration (IC50) of 0.014 µM. That is a double-digit nanomolar value.

For the molecule `COc1nc(C2CC2)c(Cl)cc1-n1c(=O)ccc2cc(S(=O)(=O)Nc3ccon3)ccc21` (atropisomer, axis not shown; (M)) [Example 1229, (M)-1-(5-chloro-6-cyclopropyl-2-methoxy-3-pyridinyl)-N-3-isoxazolyl-2-oxo-1,2-dihydro-6-quinolinesulfonamide], the IC50 is 17.2 µM.

In turn, `COc1ccc(C)cc1-c1ccc(-n2c(=O)ccc3cc(S(=O)(=O)Nc4ccon4)ccc32)c(OC)c1` [Example 1036, 1-(2′,3-dimethoxy-5′-methyl-4-biphenylyl)-N-3-isoxazolyl-2-oxo-1,2-dihydro-6-quinolinesulfonamide] returned an IC50 under setting [1] of 0.02 µM. This counts as double-digit nanomolar.

As for `COc1cc(-c2ccc(Cl)c(C)c2)c(C)cc1-n1c(=O)ccc2cc(S(=O)(=O)Nc3ccon3)ccc21` (atropisomer, axis not shown; (M)) [Example 422, (M)-1-(4′-chloro-5-methoxy-2,3′-dimethyl-4-biphenylyl)-N-3-isoxazolyl-2-oxo-1,2-dihydro-6-quinolinesulfonamide], the IC50 turned out to be 6.09 µM.

In the case of `O=c1ccc2cc(S(=O)(=O)Nc3ccon3)ccc2n1-c1cc(F)c(-c2cc(F)cc(F)c2)cc1OC1CNC1` [Example 670, 1-(5-(azetidin-3-yloxy)-2,3′,5′-trifluoro-[1,1′-biphenyl]-4-yl)-N-(isoxazol-3-yl)-2-oxo-1,2-dihydroquinoline-6-sulfonamide 2,2,2-trifluoroacetate], the IC50 is 0.039 µM.

In turn, `COc1nc(NCC2(C)CCCC2)c(Cl)cc1-n1c(=O)ccc2cc(S(=O)(=O)Nc3ccon3)ccc21` [Example 1236, 1-(5-chloro-2-methoxy-6-(((1-methylcyclopentyl)methyl)amino)-3-pyridinyl)-N-3-isoxazolyl-2-oxo-1,2-dihydro-6-quinolinesulfonamide] came in with an IC50 of 0.507 µM.

Under “in-vitro PatchXpress (PX)”, `COc1nc(-c2ccc(Cl)c(C)c2)c(Cl)cc1-n1c(=O)ccc2cc(S(=O)(=O)Nc3ccon3)ccc21` [Example 448, 1-(5-chloro-6-(4-chloro-3-methylphenyl)-2-methoxypyridin-3-yl)-N-(isoxazol-3-yl)-2-oxo-1,2-dihydroquinoline-6-sulfonamide] registered a 50% inhibitory concentration (IC50) of 0.115 µM.

For the molecule `COc1cc(-c2cccc(F)c2)c(C)cc1-n1c(=O)ccc2cc(S(=O)(=O)Nc3ccon3)ccc21` (atropisomer, axis not shown; (M)) [Example 428, (M)-1-(3′-fluoro-5-methoxy-2-methyl-4-biphenylyl)-N-3-isoxazolyl-2-oxo-1,2-dihydro-6-quinolinesulfonamide], the half-inhibitory concentration (IC50) came out at 7.59 µM.

For the setting “in-vitro Nav 1.7 PX data”, `COc1cc(-c2ccc(F)c(F)c2)c(C)cc1-n1c(=O)ccc2cc(S(=O)(=O)Nc3ncccn3)ccc21` [Example 958, 1-(3′,4′-difluoro-5-methoxy-2-methyl-4-biphenylyl)-2-oxo-N-2-pyrimidinyl-1,2-dihydro-6-quinolinesulfonamide] returned an IC50 of 0.028 µM.

As for `COc1cc(Br)ccc1-n1c(=O)ccc2cc(S(=O)(=O)Nc3ccon3)ccc21` (atropisomer, axis not shown; (P)) [Example 574, (P)-1-(4-bromo-2-methoxyphenyl)-N-3-isoxazolyl-2-oxo-1,2-dihydro-6-quinolinesulfonamide], the IC50 came to 0.772 µM.

`COc1cc(-c2ccc(Cl)c(C#N)c2)c(F)cc1-n1c(=O)ccc2cc(S(=O)(=O)Nc3ccnc(C)n3)ccc21` [Example 892, 1-(4′-chloro-3′-cyano-2-fluoro-5-methoxy-4-biphenylyl)-N-(2-methyl-4-pyrimidinyl)-2-oxo-1,2-dihydro-6-quinolinesulfonamide]: the IC50 (in-vitro Nav 1.7 PX data) was determined as 0.051 µM.

Molecule `COc1cc(-c2ccc(F)cc2)c(F)cc1-n1c(=O)ccc2cc(S(=O)(=O)Nc3ccnc(C)n3)ccc21` [Example 773, 1-(2,4′-difluoro-5-methoxy-4-biphenylyl)-N-(2-methyl-4-pyrimidinyl)-2-oxo-1,2-dihydro-6-quinolinesulfonamide] returned a concentration for half-maximal inhibition (IC50) (in-vitro Nav 1.7 PX data) of 0.274 µM. Against the preceding molecule, the IC50 is about 5.4-fold higher.

In the case of `COc1nc(OCc2ccc(F)c(F)c2)c(Cl)cc1-n1c(=O)ccc2cc(S(=O)(=O)Nc3ccon3)ccc21` [Example 1217, 1-(5-chloro-6-((3,4-difluorobenzyl)oxy)-2-methoxy-3-pyridinyl)-N-3-isoxazolyl-2-oxo-1,2-dihydro-6-quinolinesulfonamide], the midpoint of inhibition, the IC50, lay at 0.096 µM.

Molecule `COc1cc(-c2cccc(C)c2Cl)ccc1-n1c(=O)ccc2cc(S(=O)(=O)Nc3ccon3)ccc21` [Example 1059, 1-(2′-chloro-3-methoxy-3′-methyl-4-biphenylyl)-N-3-isoxazolyl-2-oxo-1,2-dihydro-6-quinolinesulfonamide] registered a 50% inhibitory concentration (IC50) under setting [1] of 0.032 µM. That is a double-digit nanomolar value.

(Values after patent US9212182B2, “Bicyclic sulfonamide compounds as sodium channel inhibitors” (AMGEN INC., priority 2013, dated 2015).)
